For one data set, the system named is db/db mouse. Put plainly: db/db mouse model of HFpEF. The data set is classed as in vivo. The source says: The db/db leptin receptor-deficient mouse has a point mutation in the diabetes (db) gene encoding the leptin receptor, which spontaneously causes morbid obesity accompanied by severe hyperglycemia secondary to type 2 diabetes. […] At the histological level, these mice hearts have enlarged cardiomyocytes, evidence of fibrosis, and capillary rarefaction. The db/db mice appear to represent the obese/metabolic HFpEF phenotype, with evidence of HF, whereas LVEF is preserved.
Model 3: twenty-week old male diabetic-prone, obese db/db mice of the BKS.Cg-Dock7m+/+Leprdb/J strain will be randomly assigned (30 mice, n=10/group) to receive vehicle or chronic Compound 1 treatment at 60 mg/kg/day or 100 mg/kg/day. Treatment will be carried for 8 weeks using subcutaneous osmotic pumps. The mice will be housed in a standard-temperature, 12 h/12 h light/dark controlled room, with water and standard rodent diet available ad libitum.
(§1) Methods: Cardiac and renal responses to Compound 1 (60 mg/kg, 100 mg/kg) compared with vehicle were examined over 6-8 weeks in 3 adult male mouse models of HFpEF (1.5 mg/kg/d angiotensin-II infusion [ang-II]; uninephrectomy+0.30 μg/h d-aldosterone infusion+1% NaCl drinking water [neph-aldo]; and db/db [db]). Phenotyping included wheat germ agglutinin staining for cardiomyocyte cross-sectional area (CSA); RT-PCR for myocardial PDE9, natriuretic peptide, inflammatory and fibrosis marker transcript abundances; ELISA for plasma natriuretic peptides; and urinary albumin to creatinine ratio (UACR).
(§2) P-value from Wilcoxon rank-sum test. Ang-II model (8-week old C57BL/6 mice were infused with ang-II at […] for 6 weeks with concomitant Compound 1 or vehicle). Neph+d-aldo+1% NaCl model (8-week old C57BL/6 mice underwent uninephrectomy then were infused with d-aldosterone for 6 weeks with ad-libitum 1% NaCl drinking water while receiving concomitant Compound 1 or vehicle). db model (20-week old BKS.Cg-Dock7m+/+Leprdb/J received vehicle or Compound 1 for 8 weeks). mRNA expression levels were normalized to GAPDH, Rpl4 and Eef1e1.

Another data set concerns patient. The data set is described as follows: Administration with food, adverse event profile. The class given is in vivo. The note with it: once a day with food.
For data set [1], the system named is angiotensin II-infused mouse (Ang-II model of HFpEF). Put plainly: Angiotensin II infusion mouse model of HFpEF. The class given is in vivo.
Description: C57BL/6J mice develop compensatory concentric hypertrophy and fibrosis in response to angiotensin II. Pulmonary congestion, as well as exercise intolerance, are evident and seem to be related to angiotensin II-induced skeletal muscle abnormalities, including impaired mitochondrial function and skeletal muscle atrophy. In summary, if strain and dosage are optimized to mirror the human HFpEF phenotype, angiotensin II infusion appears to be a relevant HFpEF model.
Model 2: eight-week-old C57BL/6J male mice were anesthetized with isoflurane and subcutaneously implanted with an osmotic minipump to continuously infuse angiotensin II in 10 mM acetic acid at a dose of 1.5 mg/kg per day over a period of 4 to 6 weeks. Experimental animal groups were randomly assigned to receive either vehicle or Compound 1 at 60 mg/kg/day or 100 mg/kg/day by oral gavage for 4 or 6 weeks (36 mice, N=6/group) over the same time period. The mice were housed in a standard-temperature, 12 h/12 h light/dark controlled room, with water and standard rodent diet available ad libitum. Mice were euthanized 4 or 6 weeks after angiotensin-II infusion. It has been shown that administering of 60 mg/kg of Compound 1 in mice is equivalent to administering about 4.8 mg/kg of Compound 1 in adult human subjects. Similarly, it has been shown that administering 100 mg/kg of Compound 1 in mice is equivalent to administering about 8.1 mg/kg of Compound 1 in human subjects.
as §1, §2

Data set [2] concerns aldosterone-infused and unilateral nephrectomized mouse (neph-aldo model of HFpEF). Put plainly: Uninephrectomy + d-aldosterone infusion + 1% NaCl mouse model of HFpEF. The class given is in vivo.
Description: Mice subjected to uninephrectomy and aldosterone infusion for 4 to 6 weeks, accompanied by 1% NaCl intake, develop HFpEF with moderate hypertension, concentric left ventricle hypertrophy, pulmonary congestion, and echocardiographic evidence of diastolic dysfunction while maintaining a normal/preserved LVEF. These mice also show exercise impairment. At the molecular level, left ventricle tissue from these mice show an increase in natriuretic peptides, cardiac size and fibrosis, as well as an increase in the oxidative stress.
Model 1: eight-week-old C57BL/6J male mice were anesthetized with 100 mg/kg ketamine and 10 mg/kg xylazine intraperitoneally. All mice underwent unilateral nephrectomy and then will receive a continuous infusion of d-aldosterone (0.30 μg/h) via osmotic minipumps. All mice were maintained on 1.0% sodium chloride drinking water. Mice were randomized to receive either vehicle or Compound 1 at 60 mg/kg/day or 100 mg/kg/day by oral gavage for 4 or 6 weeks (36 mice, N=6/group). The mice were housed in a standard-temperature, 12 h/12 h light/dark controlled room, with water and standard rodent diet available ad libitum. Mice were euthanized 4 or 6 weeks after the beginning of the treatment. It has been shown that administering of 60 mg/kg of Compound 1 in mice is equivalent to administering about 4.8 mg/kg of Compound 1 in adult human subjects. Similarly, it has been shown that administering 100 mg/kg of Compound 1 in mice is equivalent to administering about 8.1 mg/kg of Compound 1 in human subjects.
as §1, §2

The subject of data set [3] is adult patients with sickle cell disease. Put plainly: IMR-SCD-102 Phase 2a trial, plasma NT-proBNP. The class given is in vivo, human. As for the experimental part: IMR-SCD-102 is an ongoing Phase 2a randomized double-blind placebo-controlled trial testing Compound 1 (IMR-687) at 50 mg-200 mg daily as monotherapy or 50-100 mg in combination with background hydroxyurea therapy (Compound 1+HU). A protocol amendment later in the study allowed for sample collection and characterization of NT-proBNP levels in the combination cohort (Compound 1+HU versus HU alone). Plasma NT-proBNP was measured in 15 subjects (100% HbSS genotype) at randomization and again at 4 months. A 2:1 randomization schema favoring combination treatment translated to 10 subjects on Compound 1+HU and 5 on HU alone. Baseline, 4-month follow-up, and change in NT-proBNP levels were quantified. Further, whether the change in NT-proBNP level varied according to treatment and baseline NT-proBNP level was tested.

The mark [4] stands for this setting: median, db/db model, 8 weeks, normalized to GAPDH, Rpl4 and Eef1e1.
Setting [5] is: median, Ang-II model, 6 weeks, normalized to GAPDH, Rpl4 and Eef1e1.
[6] abbreviates: median, Neph + Aldo model, 6 weeks.
[7] abbreviates: median, Neph + Aldo model, 6 weeks, normalized to GAPDH, Rpl4 and Eef1e1.

Where “and” joins values, the source holds several entries; their conditions need not be identical. Equal entries are not always repeated.

Take `C[C@@H]1CN(Cc2ncccn2)C[C@H]1c1cn2c(C3CCOCC3)ncc2c(=O)[nH]1` (single isomer, unassigned) [Compound 1]: the “Heart rate and blood pressure, Compound 1 vs vehicle treated mice” value (with db/db mouse (db model); in data set [1] (ang-II model); in data set [2] (neph-aldo model)) was “did not differ” each time. Moreover, the “reduction of median cardiomyocyte size (CSA) compared with vehicle” value in the data set on db/db mouse (db model, Compound 1 60 mg/kg, 100 mg/kg, p<0.003) is reported as 35%; in data set [1] (ang-II model, Compound 1 60 mg/kg, 100 mg/kg, p<0.003) it was 54%; in data set [2] (neph-aldo model, Compound 1 60 mg/kg, 100 mg/kg, p<0.003), 58%. Besides, the “Plasma ANP” value turned out to be 714 pg/mL with db/db mouse (median, db/db model, 8 weeks); 968 pg/mL in data set [1] (median, Ang-II model, 6 weeks); 740 pg/mL in data set [2] (setting [6]). In addition, the “Plasma BNP” value was determined as 830 pg/mL in the data set with db/db mouse (median, db/db model, 8 weeks); 2376 pg/mL in data set [1] (median, Ang-II model, 6 weeks); 1216 pg/mL in data set [2] (setting [6]). In addition, the “Urine UACR (urinary albumin to creatinine ratio)” value in the data set on db/db mouse (median, db/db model, 8 weeks) was found to be 132.5 µg/mg; in data set [1] (median, Ang-II model, 6 weeks), 95.5 µg/mg; in data set [2] (setting [6]) it was 48.4 µg/mg. Moreover, the “Myocardial mRNA PDE9” value with db/db mouse (median, db/db model, 8 weeks, Compound 1 60 mg/kg, 100 mg/kg, normalized to GAPDH, Rpl4 and Eef1e1) amounted to 1.5; in data set [1] (median, Ang-II model, 6 weeks, Compound 1 60 mg/kg, 100 mg/kg, normalized to GAPDH, Rpl4 and Eef1e1) it was 1.7; in data set [2] (median, Neph + Aldo model, 6 weeks, Compound 1 60 mg/kg, 100 mg/kg, normalized to GAPDH, Rpl4 and Eef1e1), 3.7. Besides, the figures for the “Myocardial mRNA COL3A1” value (with db/db mouse (setting [4]); in data set [1] (setting [5]); in data set [2] (setting [7])) were 1.1, 1.5 and 2.6, respectively. Also, the figures for the “Myocardial mRNA IL-1b” value (with db/db mouse (setting [4]); in data set [1] (setting [5]); in data set [2] (setting [7])) were 3.6, 1.9 and 2.5, respectively. In addition, the “Myocardial mRNA NPPA” value in the data set on db/db mouse (setting [4]) is on record as 1.7; in data set [1] (setting [5]), 1.4; in data set [2] (setting [7]), 4.9. For the same molecule, the “Myocardial mRNA NPPB” value is reported as 2.2 with db/db mouse (setting [4]), 2.0 in data set [1] (setting [5]) and 4.2 in data set [2] (setting [7]). In addition, the “effect of food on adverse event profile (nausea, emesis, headache)” value in the data set on patient is “reduce the adverse event profile dramatically”. Besides, the “heart size and cardiomyocyte hypertrophy” value in data set [1] (6 weeks of dosing at 60 and 100 mg/kg, FIGS. 1A, 1B) is listed as “decreases”; in data set [2] (after 4 weeks of dosing at 60 and 100 mg/kg, FIGS. 2A, 2B), “decreases”. Also, the “ANP and BNP markers of cardiac dysfunction” value in data set [1] (dosing with 60 and 100 mg/kg, FIGS. 3A, 3B left side) is given as “decreases”; in data set [2] (dosing with 60 and 100 mg/kg, FIGS. 3A, 3B right side), “decreases”. Besides, the “PDE5 and PDE9 expression” value in data set [1] (in combination with Angiotensin II, FIG. 4A) is on record as “increased”; in data set [2] (in combination with nephrectomy-aldosterone, FIG. 4B), “increased”. Besides, the “markers of myocardial inflammation” value in data set [1] (in combination with Angiotensin II, FIG. 8A) is recorded as “decreases”; in data set [2] (in combination with nephrectomy-aldosterone, FIG. 8B) it was “decreases”. The “heart fibrosis (TGF-ß1 and downstream targets Fibronectin and Collagen type I and III)” value is “decreases” in data set [1] (in combination with Angiotensin II, FIGS. 6A, 6B) and “decreases” in data set [2] (in combination with nephrectomy-aldosterone, FIG. 7).
Take `NC(=O)NO` [HU, hydroxyurea]: the “treated subjects with greater than 50% reduction in NT-proBNP levels” value in data set [3] (at 4 months) is on record as “none”. Moreover, in data set [3] (plasma, 4 months), the “mean 4-month follow-up NT-proBNP level” value came out at 436 pg/mL; the “mean NT-proBNP higher at 4 months than baseline” value is 27.0% and 27. %; the “mean increase of NT-proBNP, baseline to 4 months” value stood at 93 pg/mL. Besides, the “mean baseline NT-proBNP level” value in data set [3] (plasma, at randomization) was 343 pg/mL. Moreover, the “average increase in NT-proBNP between baseline and 4 months” value in data set [3] (subjects with baseline NT-proBNP ≥400 pg/ml) was determined as 28%.

The values above are taken from patent US20240025904A1, “PDE9 INHIBITORS FOR TREATING CARDIAC FAILURE” (Cardurion Pharmaceuticals, Inc., priority 2020, published 2024).
